SMILES strings stand for the structures. pEC50: −log10 of the molar value.

Sequence of human GLP-1 receptor (P43220 24-463): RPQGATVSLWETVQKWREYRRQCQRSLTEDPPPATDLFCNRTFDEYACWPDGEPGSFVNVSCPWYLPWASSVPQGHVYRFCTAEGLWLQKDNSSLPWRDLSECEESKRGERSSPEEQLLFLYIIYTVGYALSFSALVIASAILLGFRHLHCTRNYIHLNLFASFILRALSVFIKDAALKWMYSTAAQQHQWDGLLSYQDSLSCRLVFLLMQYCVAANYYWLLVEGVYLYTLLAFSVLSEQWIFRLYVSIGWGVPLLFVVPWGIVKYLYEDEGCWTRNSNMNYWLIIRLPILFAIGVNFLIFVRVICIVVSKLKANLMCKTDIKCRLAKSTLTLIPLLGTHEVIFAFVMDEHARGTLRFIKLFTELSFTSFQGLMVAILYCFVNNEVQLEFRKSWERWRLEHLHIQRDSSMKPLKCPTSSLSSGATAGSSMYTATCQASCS

The assay concerns the target human GLP-1 receptor (Homo sapiens (Human), UniProt P43220). The settings on record: read-out: Mean EC50; cAMP, HTRF detection, 30 min at 37° C., HEK-293 cells expressing cloned human GLP-1 receptor.
One may read the pEC50 as the negative decadic logarithm of the EC50, by convention in mol/L. With `Cc1nccc(Oc2ccc(C[C@H](NC(=O)[C@@H]3Cc4cc5c(cc4CN3C(=O)OCc3ccccc3)O[C@@H](c3ccc(OCc4ccc(Cl)c(Cl)c4)cc3)CO5)C(=O)O)cc2)c1C` [Example 302, (3S,8S)-8-{(S)-1-Carboxy-2-[4-(2,3-dimethyl-pyridin-4-yloxy)-phenyl]-ethylcarbamoyl}-3-[4-(3,4-dichloro-benzyloxy)-phenyl]-2,3,8,9-tetrahydro-6H-[1,4]dioxino[2,3-g]isoquinoline-7-carboxylic acid benzyl ester], the pEC50 was 6.74.
As for `Cc1nccc(-c2ccc(C[C@H](NC(=O)[C@@H]3Cc4cc5c(cc4CN3C(=O)c3ccccc3)O[C@@H](c3ccc(OCCC(C)(C)C)cc3)CO5)C(=O)O)cc2)c1C` [Example 303, (S)-2-({(3S,8S)-7-Benzoyl-3-[4-(3,3-dimethyl-butoxy)-phenyl]-2,3,6,7,8,9-hexahydro-[1,4]dioxino[2,3-g]isoquinoline-8-carbonyl}-amino)-3-[4-(2,3-dimethyl-pyridin-4-yl)-phenyl]-propionic acid], the pEC50 was 6.85.
As for `Cc1nccc(-c2ccc(C[C@H](NC(=O)[C@@H]3Cc4cc5c(cc4CN3C(=O)c3ccccc3)O[C@@H](c3ccc(OCC4CCCC4)cc3)CO5)C(=O)O)cc2)c1C` [Example 305, (S)-2-{[(3S,8S)-7-Benzoyl-3-(4-cyclopentylmethoxy-phenyl)-2,3,6,7,8,9-hexahydro-[1,4]dioxino[2,3-g]isoquinoline-8-carbonyl]-amino}-3-[4-(2,3-dimethyl-pyridin-4-yl)-phenyl]-propionic acid], the figure is 6.70; as for `Cc1nccc(-c2ccc(C[C@H](NC(=O)[C@@H]3Cc4cc5c(cc4CN3C(=O)c3ccccc3)O[C@@H](c3ccc(O[C@H]4CC[C@H](C)CC4)cc3)CO5)C(=O)O)cc2)c1C` [Example 306, (S)-2-({(3S,8S)-7-Benzoyl-3-[4-(trans-4-methyl-cyclohexyloxy)-phenyl]-2,3,6,7,8,9-hexahydro-[1,4]dioxino[2,3-g]isoquinoline-8-carbonyl}-amino)-3-[4-(2,3-dimethyl-pyridin-4-yl)-phenyl]-propionic acid], 6.99.
For the compound `Cc1nccc(-c2ccc(C[C@H](NC(=O)[C@@H]3Cc4cc5c(cc4CN3C(=O)N3CCOCC3)O[C@@H](c3ccc(OCc4ccc(Cl)c(Cl)c4)cc3)CO5)C(=O)O)cc2)c1C` [Example 311, (S)-2-{[(3S,8S)-3-[4-(3,4-Dichloro-benzyloxy)-phenyl]-7-(morpholine-4-carbonyl)-2,3,6,7,8,9-hexahydro-[1,4]dioxino[2,3-g]isoquinoline-8-carbonyl]-amino}-3-[4-(2,3-dimethyl-pyridin-4-yl)-phenyl]-propionic acid], the pEC50 was 7.13.
Next, `Cc1nccc(-c2ccc(C[C@H](NC(=O)[C@@H]3Cc4cc5c(cc4CN3C(=O)N3CCCCC3)O[C@@H](c3ccc(OCc4ccc(Cl)c(Cl)c4)cc3)CO5)C(=O)O)cc2)c1C` [Example 312, (S)-2-{[(3S,8S)-3-[4-(3,4-Dichloro-benzyloxy)-phenyl]-7-(piperidine-1-carbonyl)-2,3,6,7,8,9-hexahydro-[1,4]dioxino[2,3-g]isoquinoline-8-carbonyl]-amino}-3-[4-(2,3-dimethyl-pyridin-4-yl)-phenyl]-propionic acid]: 7.49; `Cc1nccc(-c2ccc(C[C@H](NC(=O)[C@@H]3Cc4cc5c(cc4CN3C(=O)N3CCCC3)O[C@@H](c3ccc(OCc4ccc(Cl)c(Cl)c4)cc3)CO5)C(=O)O)cc2)c1C` [Example 313, (S)-2-{[(3S,8S)-3-[4-(3,4-Dichloro-benzyloxy)-phenyl]-7-(pyrrolidine-1-carbonyl)-2,3,6,7,8,9-hexahydro-[1,4]dioxino[2,3-g]isoquinoline-8-carbonyl]-amino}-3-[4-(2,3-dimethyl-pyridin-4-yl)-phenyl]-propionic acid]: 7.14.
As for `CCC(C)(C)NC(=O)N1Cc2cc3c(cc2C[C@H]1C(=O)N[C@@H](Cc1ccc(-c2ccnc(C)c2C)cc1)C(=O)O)OC[C@H](c1ccc(OCc2ccc(Cl)c(Cl)c2)cc1)O3` [Example 319, (S)-2-{[(3S,8S)-3-[4-(3,4-Dichloro-benzyloxy)-phenyl]-7-(1,1-dimethyl-propylcarbamoyl)-2,3,6,7,8,9-hexahydro-[1,4]dioxino[2,3-g]isoquinoline-8-carbonyl]-amino}-3-[4-(2,3-dimethyl-pyridin-4-yl)-phenyl]-propionic acid], the figure is 6.74; as for `Cc1nccc(-c2ccc(C[C@H](NC(=O)[C@@H]3Cc4cc5c(cc4CN3C(=O)NC3(C)CCC3)O[C@@H](c3ccc(OCc4ccc(Cl)c(Cl)c4)cc3)CO5)C(=O)O)cc2)c1C` [Example 320, (S)-2-{[(3S,8S)-3-[4-(3,4-Dichloro-benzyloxy)-phenyl]-7-(1-methyl-cyclobutylcarbamoyl)-2,3,6,7,8,9-hexahydro-[1,4]dioxino[2,3-g]isoquinoline-8-carbonyl]-amino}-3-[4-(2,3-dimethyl-pyridin-4-yl)-phenyl]-propionic acid], 7.35.
For `Cc1nccc(-c2ccc(C[C@H](NC(=O)[C@@H]3Cc4cc5c(cc4CN3C(=O)NC(C)(C)c3ccccc3)O[C@@H](c3ccc(OCc4ccc(Cl)c(Cl)c4)cc3)CO5)C(=O)O)cc2)c1C` [Example 323, (S)-2-{[(3S,8S)-3-[4-(3,4-Dichloro-benzyloxy)-phenyl]-7-(1-methyl-1-phenyl-ethylcarbamoyl)-2,3,6,7,8,9-hexahydro-[1,4]dioxino[2,3-g]isoquinoline-8-carbonyl]-amino}-3-[4-(2,3-dimethyl-pyridin-4-yl)-phenyl]-propionic acid], the pEC50 is 6.75.
Next, `Cc1nccc(-c2ccc(C[C@H](NC(=O)[C@@H]3Cc4cc5c(cc4CN3C(=O)c3ccn(C)n3)O[C@@H](c3ccc(OCc4ccc(Cl)c(Cl)c4)cc3)CO5)C(=O)O)cc2)c1C` [Example 324, (S)-2-{[(3S,8S)-3-[4-(3,4-Dichloro-benzyloxy)-phenyl]-7-(1-methyl-1H-pyrazole-3-carbonyl)-2,3,6,7,8,9-hexahydro-[1,4]dioxino[2,3-g]isoquinoline-8-carbonyl]-amino}-3-[4-(2,3-dimethyl-pyridin-4-yl)-phenyl]-propionic acid]: 6.90; `Cc1ccc(C(=O)N2Cc3cc4c(cc3C[C@H]2C(=O)N[C@@H](Cc2ccc(-c3ccnc(C)c3C)cc2)C(=O)O)OC[C@H](c2ccc(OCc3ccc(Cl)c(Cl)c3)cc2)O4)s1` [Example 329, (S)-2-{[(3S,8S)-3-[4-(3,4-dichloro-benzyloxy)-phenyl]-7-(5-methyl-thiophene-2-carbonyl)-2,3,6,7,8,9-hexahydro-[1,4]dioxino[2,3-g]isoquinoline-8-carbonyl]-amino}-3-[4-(2,3-dimethyl-pyridin-4-yl)-phenyl]-propionic acid]: 7.09; `Cc1nccc(-c2ccc(C[C@H](NC(=O)[C@@H]3Cc4cc5c(cc4CN3C(=O)c3nc[nH]n3)O[C@@H](c3ccc(OCc4ccc(Cl)c(Cl)c4)cc3)CO5)C(=O)O)cc2)c1C` [Example 332, (S)-2-{[(3S,8S)-3-[4-(3,4-Dichloro-benzyloxy)-phenyl]-7-(1H-[1,2,4]triazole-3-carbonyl)-2,3,6,7,8,9-hexahydro-[1,4]dioxino[2,3-g]isoquinoline-8-carbonyl]-amino}-3-[4-(2,3-dimethyl-pyridin-4-yl)-phenyl]-propionic acid]: 7.18.

For the origin of these results see patent US9175003B2, “Substituted azoanthracene derivatives and intermediates for preparation thereof” (TransTech Pharma, LLC, priority 2009, dated 2015).
